Values of other authors, collected in patent publication US20160253451A1, “METHOD OF USING A WATER-BASED PHARMACOPHORE” (KOREA UNIVERSITY, priority 2013, published 2016).

Biological target: streptavidin (Streptomyces avidinii, UniProt P22629)
Conditions: streptavidin-biotin complex

streptavidin, sequence (P22629 25-183, species assumed): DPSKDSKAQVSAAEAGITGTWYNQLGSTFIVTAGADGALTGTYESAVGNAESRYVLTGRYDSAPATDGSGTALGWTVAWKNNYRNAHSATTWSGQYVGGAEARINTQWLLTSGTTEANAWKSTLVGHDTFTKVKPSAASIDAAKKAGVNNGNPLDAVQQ

SMILES: O=C(O)CCCC[C@@H]1SC[C@@H]2NC(=O)N[C@@H]21 [biotin]
- actual affinity: -76.6 kJ/mol
